According to patent US20060111368A1, “Phosphodiesterase inhibitor” (Kyowa Hakko Kogyo Co., Ltd., priority 2002, published 2006):
Structures can show the parent of a compound that is named as a salt.

Test system: 6-hydroxydopamine (6OHDA)-treated rats
Assay: Test for activity to hyperkinesia in 6-hydroxydopamine (6OHDA)-treated rats
Assay type: in vivo, rat
Details: 50 mg/kg test compound intraperitoneally, then L-DOPA 30 mg/kg and benserazide 7.5 mg/kg orally; vehicle group 1,298±193; 180° rotation = 1 count
Procedure: Test for Activity to Hyperkinesia in 6-hydroxydopamine (6OHDA)-Treated Rats
When the unilateral nigrostriatal pathway is lesioned with 6-OHDA, sensitivity of dopamine receptors in the striatum on the lesioned side is increased. When a dopamine activity enhancing substance such as L-DOPA is administered thereto, a rotating behavior takes place on the side opposite to the lesioned side. This animal model has been long positioned as an excellent test model of Parkinson's disease, and has been used for research of therapeutic agent for Parkinson's disease [Neurol. Neurobiol. vol. 33, p. 1 (1987)]. […]
After withdrawal of the administration of apomorphine for 14 days, L-DOPA and bensetazide were orally administered to the rats at doses of 100 mg/kg and 25 mg/kg respectively to induce hyperkinesia. At this time, the number of rotations was measured for 60 minutes immediately after the administration. […]
After 7 days from the dividing into groups, the number of rotations for 60 minutes was measured by similar manner as that of above-mentioned. […] Immediately after the administration, 30 mg/kg of L-DOPA and 7.5 mg/kg of benserazide were orally administered to A and B groups, and the number of rotations for 60 minutes was measured every 5 minutes. […]

Q: How did the “total number of rotations for 60 minutes” value turn out when `Cc1c(-c2ccc(-c3ccccc3CN3CCOCC3)cc2)nc2ccc(F)cc2c1CO` [Compound 12, 6-Fluoro-4-hydroxymethyl-3-methyl-2-(2′-morpholinomethylbiphenyl-4-yl)quinoline dihydrochloride] was run?
A: 48±20
